Results from PMC7078479, “Sulfamoyl Heteroarylcarboxylic Acids as Promising Metallo-β-Lactamase Inhibitors for Controlling Bacterial Carbapenem Resistance” (mBio, 2020).

Legend:
[1] = tested on: IMP producers rather than NDM/VIM producers; conditions: cited from earlier work
[2] = tested on: E. coli DH5α/pBC-VIM-2; assay: Susceptibility and checkerboard testing, VIM-2-producing E. coli; assay type: cell-based, Escherichia coli; conditions: Escherichia coli, read-out: MIC of CAZ without inhibitor
Experimental: MICs were determined via the microdilution method according to the CLSI guidelines ([38]). In brief, 5 × 10^4 bacterial cells were inoculated in 100 μl of cation-adjusted Mueller-Hinton broth (Becton, Dickinson and Company, Franklin Lakes, NJ) containing the β-lactams and appropriately diluted inhibitors. The final concentration of DMSO was maintained at 2% in the assays. The tested plates were then incubated at 35°C for 16 to 20 h. The MIC value was determined as the lowest concentration of tested β-lactams where no bacterial growth was visibly observed. The optical density at 600 nm (OD600) value was measured using a plate reader for drawing the heat maps. The FIC index value was calculated using the following equation: FIC index=MIC of β-lactam with inhibitor/MIC of β-lactam alone+MIC of inhibitor with β-lactam/MIC of inhibitor alone
Unless noted otherwise, the FIC index was defined as the lowest value among all obtained values. The synergistic effect was defined as the effect observed when the FIC index value was ≤0.5.

[3] = biological target: T1, VIM-2 (Escherichia coli, UniProt Q5U7L7); assay: Inhibition of IPM hydrolysis by purified VIM-2, Ki by Lineweaver-Burk plots; assay type: biochemical; conditions: IPM as substrate, competitive model, mean of three replicates; read-out: Inhibition constant Ki VIM-2
T1 construct: made in house
Experimental: (§1) MBL (10 nM) was mixed with the inhibitors and incubated for 5 min at 30°C. IPM was added to reach a concentration of 150 μM, and the velocity of IPM hydrolysis was monitored at 298 nm. The assay was performed at 30°C using 10 mM HEPES (pH 7.5) buffer containing 200 mM NaCl and 50 μg/ml bovine serum albumin (BSA) for IMP-1, NDM-1, VIM-2, and SMB-1. For SFH-1 and L1, another 10 mM HEPES (pH 7.5) buffer containing 200 mM NaCl, 20 μM ZnSO4, and 50 μg/ml BSA was used.
(§2) Initial velocities (vo) were measured after varying the concentrations of IPM and inhibitors, and inverse velocities (1/vo) were plotted against inverse IPM concentrations […]. Lineweaver-Burk plots were constructed to obtain the inhibition constant (Ki) with the competitive inhibition model using the SigmaPlot 13 suite (Hulinks).

[4] = biological target: T2, NDM-1 (Klebsiella pneumoniae, UniProt C7C422); assay: Inhibition of IPM hydrolysis by purified NDM-1, Ki by Lineweaver-Burk plots; assay type: biochemical; conditions: IPM as substrate, competitive model, mean of three replicates; read-out: Inhibition constant Ki NDM-1
T2 construct: made in house
Experimental: as §1, §2

[5] = biological target: T3, IMP-1 (Serratia marcescens, UniProt P52699); assay: Inhibition of IPM hydrolysis by purified IMP-1, Ki by Lineweaver-Burk plots; assay type: biochemical
T3 construct: made in house
Experimental: as §1, §2

T3 sequence (P52699 19-246 limits assumed): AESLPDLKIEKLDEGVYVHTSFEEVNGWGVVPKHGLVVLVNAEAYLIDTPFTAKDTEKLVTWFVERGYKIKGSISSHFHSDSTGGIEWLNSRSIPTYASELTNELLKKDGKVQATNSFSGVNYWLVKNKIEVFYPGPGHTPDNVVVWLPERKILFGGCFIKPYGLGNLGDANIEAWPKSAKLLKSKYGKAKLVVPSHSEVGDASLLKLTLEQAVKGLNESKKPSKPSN
T2 sequence (C7C422 29-270 limits assumed): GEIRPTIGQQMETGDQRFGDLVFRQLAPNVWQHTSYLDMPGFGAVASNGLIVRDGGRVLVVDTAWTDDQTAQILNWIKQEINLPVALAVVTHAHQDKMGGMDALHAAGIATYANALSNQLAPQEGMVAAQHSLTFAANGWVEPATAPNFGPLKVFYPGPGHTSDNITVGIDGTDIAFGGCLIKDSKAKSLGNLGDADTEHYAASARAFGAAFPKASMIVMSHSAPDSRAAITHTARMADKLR

In the case of `N[C@H](CN[C@H](CN[C@@H](CC(=O)O)C(=O)O)C(=O)O)C(=O)O` [AMA, Aspergillomarasmine A], the “Selectivity between IMP and NDM/VIM producers” value [1] is given as “superior for NDM/VIM”.
For `O=C(O)c1ncsc1NS(=O)(=O)c1cccnc1` [ANT431], the “Selectivity between IMP and NDM/VIM producers” value [1] is listed as “superior for NDM/VIM”.
`CC(C)(O/N=C(\C(=O)N[C@@H]1C(=O)N2C(C(=O)[O-])=C(C[n+]3ccccc3)CS[C@H]12)c1csc(N)n1)C(=O)O` [CAZ, ceftazidime, reference compound] gave an MIC [2] of 16 µg/mL.
`NS(=O)(=O)c1sccc1C(=O)O` [Compound 1] showed a Ki [3] of 15500 nM, a Ki [4] of 7690 nM and a Ki [5] of 34100 nM.
Work on `NS(=O)(=O)c1sc(Cl)cc1C(=O)O` [Compound 2] yielded a Ki [3] of 2290 nM, a Ki [4] of 19300 nM and a Ki [5] of 19100 nM.
For `CCc1oc(CC)c(S(N)(=O)=O)c1C(=O)O` [Compound 4, 2,5-diethyl-4-sulfamoylfuran-3-carboxylic acid], the Ki [3] was 1010 nM, the Ki [4] was 920 nM and the Ki [5] was 300 nM.
Molecule `CCCc1oc(CCC)c(S(N)(=O)=O)c1C(=O)O` [Compound 5, 2,5-dipropyl-4-sulfamoylfuran-3-carboxylic acid] has a Ki [3] of 460 nM, a Ki [4] of 510 nM and a Ki [5] of 380 nM.
With `NS(=O)(=O)c1c(C2CCCC2)oc(C2CCCC2)c1C(=O)O` [Compound 6, 2,5-dicyclopentyl-4-sulfamoylfuran-3-carboxylic acid] the Ki [3] was 760 nM, the Ki [4] was 250 nM and the Ki [5] was 1270 nM.
